Measured values reported in patent US8916499B2, “Herbicidal compositions comprising 4-amino-3-chloro-5-fluoro-6-(4-chloro-2-fluoro-3-methoxyphenyl) pyridine-2-carboxylic acid or a derivative thereof and a protoporphyrinogen oxidase inhibitor” (Dow AgroSciences LLC, priority 2012, dated 2014).
Values joined by “and” are separate entries in the source; they are usually repeats but may differ in a detail not shown here. Equal entries are not always repeated.

Legend:
[1] = test system: SCPMA; experiment: In-water applied weed control, transplanted paddy rice, greenhouse (Example II); format: in vivo
[2] = test system: CYPRO; experiment: as above; format: in vivo, Cyperus rotundus L.
[3] = test system: LEFCH; experiment: as above; format: in vivo, Leptochloa chinensis (L.) Nees
[4] = test system: ECHCO; experiment: Postemergence foliar-applied weed control, direct seeded rice, greenhouse (Example I); format: in vivo, Echinochloa colona (L.) Link
[5] = test system: SETVI; experiment: Pre-emergence soil-applied weed control, greenhouse (Example IV); format: in vivo, Setaria viridis (L.) Beauv.
Source text: Seeds or nutlets of the desired test plant species were planted in a soil matrix prepared by mixing a loam soil (32 percent silt, 23 percent clay, and 45 percent sand, with a pH of about 6.5 and an organic matter content of about 1.9 percent) and calcareous grit in an 80 to 20 ratio. The soil matrix was contained in plastic pots with a volume of 1 quart and a surface area of 83.6 square centimeters (cm^2).
Treatments consisted of the benzyl ester of 4-amino-3-chloro-5-fluoro-6-(4-chloro-2-fluoro-3-methoxy-phenyl)pyridine-2-carboxylic acid (compound A) formulated as an SC (suspension concentrate) and various herbicidal components alone and in combination. Forms of compound A were applied on an acid equivalent basis.
Other herbicidal components were applied on an acid equivalent or active ingredient basis and included the protoporphyrinogen oxidase (PPO)-inhibiting herbicides, flumioxazin formulated as Payload® and oxadiazon formulated as Ronstar® 50W.
Treatment requirements were calculated based upon the rates being tested, the concentration of active ingredient or acid equivalent in the formulation, and a 12 mL application volume at a rate of 187 L/ha.
For treatments comprised of formulated compounds, measured amounts of compounds were placed individually in 25 mL glass vials and diluted in a volume of 1.25% (v/v) Agri-Dex® crop oil concentrate (COC) to obtain 12× stock solutions. […] Application solutions were prepared by adding an appropriate amount of each stock solution (e.g., 1 mL) and diluted to the appropriate final concentrations with the addition of 10 mL of an aqueous mixture of 1.25% (v/v) COC so that the final spray solutions contained 1.25% (v/v) COC. […]
The treated and control pots were placed in a greenhouse and top watered as needed. […] After approximately 4 weeks, the condition of the test plants as compared with that of the untreated plants was determined visually and scored on a scale of 0 to 100 percent where 0 corresponds to no injury or growth inhibition and 100 corresponds to complete kill. […]

[6] = test system: LEFCH; experiment: Postemergence foliar-applied weed control, direct seeded rice, greenhouse (Example I); format: in vivo, Leptochloa chinensis (L.) Nees; settings: g ae/ha Compound A Benzyl Ester+g ai/ha saflufenacil: r26 8.75+0, r27 17.5+0, r28 0+5, r29 0+10, r30 8.75+5, r31 17.5+5, r32 8.75+10, r33 17.5+10
[7] = test system: ECHOR; experiment: In-water applied weed control, transplanted paddy rice, greenhouse (Example II); format: in vivo, Echinochloa oryzoides (Ard.) Fritsch

Structure (SMILES): COc1c(Cl)ccc(-c2nc(C(=O)OCc3ccccc3)c(Cl)c(N)c2F)c1F [Compound A Benzyl Ester, benzyl ester of 4-amino-3-chloro-5-fluoro-6-(4-chloro-2-fluoro-3-methoxy-phenyl)pyridine-2-carboxylic acid]
- Visual Weed Control (%) - 21 DAA SCPMA Obs ([1]; 48 g ae/ha alone): 0%
- Visual Weed Control (%) - 21 DAA SCPMA Obs ([1]; 96 g ae/ha alone): 0%
- Visual Weed Control (%) - 21 DAA CYPRO Obs ([2]; 4.38 g ae/ha alone): 30%
- Visual Weed Control (%) - 21 DAA CYPRO Obs ([2]; 8.75 g ae/ha alone): 60%
- Visual Weed Control (%) - 21 DAA CYPRO Obs ([2]; g ae/ha Compound A Benzyl Ester+g ai/ha oxyfluorfen (SC): r11 32+0, r12 0+135, r13 0+270, r14 32+135, r15 32+270): 90%
- Visual Weed Control (%) - 20 DAA CYPRO Obs ([2]; g ae/ha Compound A Benzyl Ester+g ai/ha pyraclonil: r19 4.38+0, r20 8.75+0, r21 0+45, r22 0+90, r23 4.38+45, r24 8.75+45, r25 4.38+90, r26 8.75+90): 20%
- Visual Weed Control (%) - 20 DAA LEFCH Obs ([3]; 4.38 g ae/ha alone): 0%
- Visual Weed Control (%) - 20 DAA LEFCH Obs ([3]; 8.75 g ae/ha alone): 20%
- Visual Weed Control (%) - 20 DAA LEFCH Obs ([3]; 17.5 g ae/ha alone): 30%
- Visual Weed Control (%) - 21 DAA ECHCO Obs ([4]; g ae/ha Compound A Benzyl Ester+g ai/ha acifluorfen sodium: r11 8+0, r12 0+140, r13 0+280, r14 8+140, r15 8+280): 40%
- Visual Weed Control (%) - 20 DAA ECHCO Obs ([4]; g ae/ha Compound A Benzyl Ester+g ai/ha pyraclonil: r15 4.38+0, r16 0+33.75, r17 0+67.5, r18 0+135, r19 4.38+33.75, r20 4.38+67.5, r21 4.38+135): 40%
- Visual Weed Control (%) - 20 DAA ECHCO Obs ([4]; g ae/ha Compound A Benzyl Ester+g ai/ha saflufenacil: r14 4.38+0, r15 8.75+0, r16 0+10, r17 0+20, r18 4.38+10, r19 8.75+10, r20 4.38+20, r21 8.75+20): 60% and 80%
- Visual Weed Control (%) - 28 DAA SETVI Obs ([5]; 16 g ae/ha alone): 10%
- Visual Weed Control (%) - 28 DAA SETVI Obs ([5]; 32 g ae/ha alone): 10%
- Visual Weed Control (%) - 20 DAA LEFCH Obs [6]: 30% and 50%
- Visual Weed Control (%) - 20 DAA ECHOR Obs ([7]; 4.38 g ae/ha alone): 10%
- Visual Weed Control (%) - 21 DAA ECHOR Obs ([7]; 8 g ae/ha alone): 20%
- Visual Weed Control (%) - 20 DAA ECHOR Obs ([7]; 8.75 g ae/ha alone): 15%
- Visual Weed Control (%) - 21 DAA ECHOR Obs ([7]; 8.75 g ae/ha alone): 25%
- Visual Weed Control (%) - 21 DAA ECHOR Obs ([7]; 16 g ae/ha alone): 45%
- Visual Weed Control (%) - 21 DAA ECHOR Obs ([7]; 17.5 g ae/ha alone): 60%
- Visual Weed Control (%) - 21 DAA ECHOR Obs ([7]; 32 g ae/ha alone): 60%
